From the CheMixHub viscosity set
± gives the uncertainty stated by the source.

Assay: xn = mol fraction of the nth substance listed

Cc1ccnc(C)c1 + c1ccccc1
viscosity [mPa·s], 101 kPa
Conditions | x1 = 0.1033 | x1 = 0.1926 | x1 = 0.3022 | x1 = 0.397 | x1 = 0.492 | x1 = 0.6027 | x1 = 0.697 | x1 = 0.8005 | x1 = 0.8995
303 K | 0.5693 ± 0.004 | 0.5838 ± 0.0041 | 0.6013 ± 0.0043 | 0.6187 ± 0.0045 | 0.6483 ± 0.0048 | 0.6749 ± 0.0051 | 0.6927 ± 0.0053 | 0.7197 ± 0.0056 | 0.7508 ± 0.006
313 K | 0.5048 ± 0.0036 | 0.5147 ± 0.0037 | 0.5305 ± 0.0039 | 0.5497 ± 0.0041 | 0.5727 ± 0.0043 | 0.5908 ± 0.0045 | 0.6073 ± 0.0047 | 0.6318 ± 0.005 | 0.6679 ± 0.0054
323 K | 0.4489 ± 0.0033 | 0.4582 ± 0.0034 | 0.4749 ± 0.0036 | 0.4967 ± 0.0037 | 0.5102 ± 0.0039 | 0.5277 ± 0.0041 | 0.5424 ± 0.0043 | 0.5752 ± 0.0046 | 0.5919 ± 0.0048

CCCCCO + CCCCO
viscosity [mPa·s], 101.33 kPa
Conditions | x2 = 0.1315 | x2 = 0.278 | x2 = 0.4762 | x2 = 0.5662 | x2 = 0.8222 | x2 = 0.9381
293.15 K | 3.867 ± 0.11 | 3.7 ± 0.11 | 3.489 ± 0.1 | 3.392 ± 0.098 | 3.127 ± 0.09 | 3.013 ± 0.087
298.15 K | 3.353 ± 0.097 | 3.232 ± 0.094 | 3.038 ± 0.088 | 2.959 ± 0.086 | 2.738 ± 0.08 | 2.642 ± 0.077

CCCCCCCCCCCCCC + CCCCCCCCCCCCCCCC
293.15 K, 101.33 kPa
Conditions | viscosity [mPa·s]
x1 = 0.276 | 3.067 ± 0.036
x1 = 0.533 | 2.789 ± 0.033
x1 = 0.773 | 2.529 ± 0.03

ClC(Cl)=C(Cl)Cl + CC(=O)c1ccccc1
298.15 K, 101 kPa
Conditions | viscosity [mPa·s]
x2 = 0.1255 | 0.893 ± 0.024
x2 = 0.3215 | 1.023 ± 0.027
x2 = 0.5397 | 1.198 ± 0.032
x2 = 0.7329 | 1.382 ± 0.036
x2 = 0.9142 | 1.555 ± 0.041

CC12CC3CC(C)(C1)CC(C)(C3)C2 + c1ccc2c(c1)CCCC2
viscosity [mPa·s], 100 kPa
Conditions | x1 = 0.1006 | x1 = 0.2003 | x1 = 0.2993 | x1 = 0.4002 | x1 = 0.4993 | x1 = 0.6013 | x1 = 0.7012 | x1 = 0.8008 | x1 = 0.9005
293.15 K | 2.14 ± 0.09 | 2.1 ± 0.09 | 2.1 ± 0.09 | 2.12 ± 0.09 | 2.16 ± 0.09 | 2.22 ± 0.09 | 2.29 ± 0.09 | 2.38 ± 0.1 | 2.5 ± 0.1
298.15 K | 1.93 ± 0.08 | 1.9 ± 0.08 | 1.9 ± 0.08 | 1.92 ± 0.08 | 1.95 ± 0.08 | 2 ± 0.08 | 2.07 ± 0.08 | 2.15 ± 0.09 | 2.25 ± 0.09
303.15 K | 1.76 ± 0.07 | 1.73 ± 0.07 | 1.73 ± 0.07 | 1.75 ± 0.07 | 1.78 ± 0.07 | 1.82 ± 0.07 | 1.88 ± 0.08 | 1.95 ± 0.08 | 2.04 ± 0.08
308.15 K | 1.61 ± 0.07 | 1.59 ± 0.07 | 1.59 ± 0.07 | 1.6 ± 0.07 | 1.62 ± 0.07 | 1.67 ± 0.07 | 1.72 ± 0.07 | 1.78 ± 0.07 | 1.85 ± 0.08
313.15 K | 1.48 ± 0.06 | 1.46 ± 0.06 | 1.46 ± 0.06 | 1.47 ± 0.06 | 1.49 ± 0.06 | 1.53 ± 0.06 | 1.57 ± 0.06 | 1.63 ± 0.07 | 1.7 ± 0.07
318.15 K | 1.37 ± 0.06 | 1.35 ± 0.06 | 1.35 ± 0.06 | 1.36 ± 0.06 | 1.38 ± 0.06 | 1.41 ± 0.06 | 1.45 ± 0.06 | 1.5 ± 0.06 | 1.56 ± 0.06
323.15 K | 1.26 ± 0.05 | 1.25 ± 0.05 | 1.25 ± 0.05 | 1.26 ± 0.05 | 1.28 ± 0.05 | 1.31 ± 0.05 | 1.34 ± 0.05 | 1.39 ± 0.06 | 1.44 ± 0.06
